Experimental data: patent US20140031283A1, “ANTICANCER FUSION PROTEIN” (ADAMED SP. Z O.O., priority 2011, published 2014)

Legend:
[1] = tested on: human colon cancer HCT116; experiment: HCT116 colon cancer xenograft in Crl:CD1-Foxn1^nu 1 mice; format: in vivo; conditions: HCT116, Crl:CD1-Foxn1^nu 1 mice
Protocol: (§1) Antitumor activity of protein preparations was tested in a mouse model of human colon cancer HCT116, human colon cancer Colo205, human colon cancer model SW620, human liver cancer model HepG2, and human lung cancer models NCI-H460 and NCI-H460-Luc2.
(§2) The HCT116 (in mice Crl:CD1-Foxn1^nu 1), Colo205, NCI-H460, NCI-H460-Luc2 cells were maintained in RPMI 1640 medium (Hyclone, Logan, Utah, USA) mixed in the ratio of 1:1 with Opti-MEM (Invitrogen, Cat.22600-134) supplemented with 10% fetal calf serum and 2 mM glutamine. On the day of mice grafting, the cells were detached from the support by washing the cells with trypsin (Invitrogen), then the cells were centrifuged at 1300 rpm, 4° C., 8 min., suspended in HBSS buffer (Hanks medium), counted and diluted to the concentration of 25×10^6 cells/ml.
(§3) Examination of antitumor activity of proteins of the invention was conducted on 7-9 week-old CD-nude (Crl:CD1-Foxn1^nu 1) or 4-6 week-old Crl:SHO-Prkdc^scidHr^hr mice obtained from Charles River Germany. Mice were kept under specific pathogen-free conditions with free access to food and demineralised water (ad libitum). All experiments on animals were carried in accordance with the guidelines: “Interdisciplinary Principles and Guidelines for the Use of Animals in Research. […]

[2] = tested on: human colon cancer HCT116; experiment: HCT116 colon cancer xenograft in Crl:SHO-Prkdc^scidHr^hr mice; format: in vivo; conditions: 65 mg/kg i.v., 10 daily applications with a two-day break, 24th day
Protocol: as §1
The HCT116 (in mice Crl:SHO-Prkdc^scidHr^hr) were alternatively maintained in McCoy's medium (Hyclone, Logan, Utah, USA) supplemented with 10% fetal calf serum and 2 mM glutamine. On the day of mice grafting, the cells were detached from the support by washing the cells with trypsin (Invitrogen), then the cells were centrifuged at 1300 rpm, 4° C., 8 min., suspended in HBSS buffer (Hanks medium), counted and diluted to the concentration of 25×10^6 cells/ml. SW620 cells were maintained in DMEM (HyClone, Logan, Utah, USA) supplemented with 10% fetal calf serum and 2 mM glutamine. On the day of mice grafting, the cells were detached from the support by washing the cells with trypsin (Invitrogen), then the cells were centrifuged at 1300 rpm, 4° C., 8 min., suspended in HBSS buffer (Hanks medium), counted and diluted to the concentration of 25×10^6 cells/ml.
Examination of antitumor activity of proteins of the invention was conducted on 7-9 week-old CD-nude (Crl:CD1-Foxn1^nu 1) or 4-6 week-old Crl:SHO-Prkdc^scidHr^hr mice obtained from Charles River Germany. […]

[3] = tested on: human lung cancer NCI-H460; experiment: NCI-H460 lung cancer xenograft in Crl:SHO-PrkdcscidHrhr mice; format: in vivo; conditions: 30 mg/kg i.v. six times every second day, 28th day
Protocol: as §1, §2, §3

HCT-116 = conditions: continuous incubation over 72 h, test MTT
Protocol: Data analysis consists in determining IC50 concentration of the protein (in ng/ml), at which the 50% reduction in the number of cells occurs in the population treated compared to control cells. Results were analyzed using GraphPad Prism 5.0 software. […] Cell culture medium was diluted to a defined density (10^4-10^5 cells per 100 μl). Then 100 μl of appropriately diluted cell suspension was applied to a 96-well plate in triplicates. Thus prepared cells were incubated for 24 h at 37° C. in 5% or 10% CO2, depending on the medium used, and then to the cells (in 100 μl of medium) further 100 μl of the medium containing various concentrations of tested proteins were added. […] After incubation of the cells with tested proteins over the period of next 72 hours, which is equivalent to 3-4 times of cell division, the medium with the test protein was added with 20 ml of MTT working solution [5 mg/ml], and incubation was continued for 3 h at 37° C. in 5% CO2. Then the medium with MTT solution was removed, and formazan crystals were dissolved by adding 100 μl of DMSO. After stirring, the absorbance was measured at 570 nm (reference filter 690 nm).
Each experiment represents the average value of at least two independent experiments performed in triplicates.

HCT116 IC50 (HCT-116): 0.02557 µg/mL
Substance: rhTRAIL114-281: recombinant human soluble TRAIL, amino acids 114-281 of hTRAIL, used as the comparative reference
tumor growth inhibition (TGI) relative to the control ([1]; 10 mg/kg i.v. daily for ten days, 31th day): 21.8%
tumor growth inhibition (TGI) relative to the control ([1]; 10 mg/kg i.v., 10 daily applications with a two-day break after the first 5, 27th day): 44%
tumor growth inhibition (TGI) relative to the control [2]: 38%
tumor growth inhibition (TGI) relative to the control [3]: 17.5%
